Measured values as given in patent publication US20070105721A1, “Vinylogous 4-Hpyrones and their use in promoting plant growth” (priority 2003, published 2007).

What was measured:
Nicotiana attenuate = assay: Germination on moist filter paper in petri dishes; type: in vivo; conditions: SW 1/10 dilution, compound 1a tested at 100 ppb
Conostylis candicans = assay: Soil-based germination trial; type: in vivo; conditions: SW 1/10 dilution; compound 1a 10 ppb; in soil; also: tested at 0.01 ppm
Description: (§1) For the soil-based germination trials, four replicates of 25 seeds were soaked in the test solution (water (control) or compound 1 analogues at 10 ppb) for 24 hours, dried in a laminar flow cabinet and sowed in a germination mix. The soil-sown seeds were incubated in the dark at 20±1° C. and were scored on a weekly basis.

Syncarpha vestita = assay: Soil-based germination trial; type: in vivo; conditions: SW 1/10 dilution; compound 1a 10 ppb; in soil; also: tested at 0.01 ppm
Description: as §1

Brunonia australis = assay: Soil-based germination trial; type: in vivo; conditions: SW 1/10 dilution; compound 1a 10 ppb; in soil; mean (SEM); also: tested at 0.01 ppm
Description: as §1

Ozothamnus cordifolium = assay: Soil-based germination trial; type: in vivo; conditions: SW 1/10 dilution; compound 1a 10 ppb; in soil; also: tested at 0.01 ppm
Description: as §1

Rhodocoma arida = assay: Soil-based germination trial; type: in vivo; conditions: SW 1/10 dilution; compound 1a 10 ppb; in soil; 1a statistically significant with p < 0.08; also: tested at 0.01 ppm
Description: as §1

Passerina vulgaris = assay: Soil-based germination trial; type: in vivo; conditions: SW 1/10 dilution; compound 1a 10 ppb; in soil; also: tested at 0.01 ppm
Description: as §1

Grevillea polybotrya = assay: Soil-based germination trial; type: in vivo; conditions: SW 1/10 dilution; compound 1a 10 ppb; in soil; also: tested at 0.01 ppm
Description: as §1

Scaevola thesioides = assay: Soil-based germination trial; type: in vivo; conditions: SW 1/10 dilution; compound 1a 10 ppb; in soil; also: tested at 0.01 ppm
Description: as §1

Verticordia densiflora = assay: Soil-based germination trial; type: in vivo; conditions: SW 1/10 dilution; compound 1a 10 ppb; in soil; also: tested at 0.01 ppm
Description: as §1

Cherianthera preissiana = assay: Seed priming; type: in vivo; conditions: 24 hr priming in 100 ppb compound 1a, re-drying and sowing; also: tested at 0.1 ppm
Description: (§2) For testing on Australian species, three replicates of 25 seeds were soaked in one of de-ionised DI water or 100 ppb compound 1a for 24 hr at 23° C. The seeds were re-dried at 23° C. for 24 hr and incubated on Petri dishes containing 0.7% (w/v) water agar in constant darkness at 18° C. Germination (radicle emergence) was recorded every 2-3 days until germination had ceased.

Centrolepis aristate = assay: Seed priming; type: in vivo; conditions: 24 hr priming in 100 ppb compound 1a, re-drying and sowing; also: tested at 0.1 ppm
Description: as §2

Phyllanthus calycinus = assay: Seed priming; type: in vivo; conditions: 24 hr priming in 100 ppb compound 1a, re-drying and sowing; also: tested at 0.1 ppm
Description: as §2

Borya sphaerocephala = assay: Seed priming; type: in vivo; conditions: 24 hr priming in 100 ppb compound 1a, re-drying and sowing; also: tested at 0.1 ppm
Description: as §2

Opercularia vaginate = assay: Seed priming; type: in vivo; conditions: 24 hr priming in 100 ppb compound 1a, re-drying and sowing; also: tested at 0.1 ppm
Description: as §2

[1] = tested on: Allium ampeloprasum (leek) seeds; assay: Seed vigour enhancement; type: in vivo; conditions: 100 ppb compound 1a; also: tested at 0.1 ppm
Description: (§3) For each species, five replicates of 20 seeds were placed on Petri dishes lined with seed germination paper. The Petri dishes were moistened with de-ionised water (control) or 100 ppb compound 1a. All species were incubated in constant darkness at 12/12 hr alternating temperatures of 7/18° C., 13/26° C. or 18/33° C. Germination was scored on radicle emergence and was recorded every 2-3 days until germination had ceased.

[2] = tested on: Petroselinium crispum (parsley) seeds; assay: Seed vigour enhancement; type: in vivo; conditions: 100 ppb compound 1a; also: tested at 0.1 ppm
Description: as §3

[3] = tested on: somatic embryos induced from shoot and coleoptile explants of Baloskion tetraphyllum; assay: Reactivity of compound 1a with somatic tissue; type: cell-based; conditions: for Frequency of shoot formation / Number of shoots: after culturing for 20 days, compound 1a at 10 ppb; as to Frequency of shoot formation: tested at 0.01 ppm; as to Number of shoots: tested at 0.01 ppm
Description: Seeds were cultured on PGR-free 1/2 MS medium for 4 weeks in darkness, then 3 mm coleoptile sections were removed under aseptic conditions and explanted to culture media supplemented with […] 2,4-dichlorophenoxyacetic acid and compound 1a (0, 1.0, 10, 100 ppb, respectively), with incubation in darkness at 22-25° C. Each plate was inoculated with 10 coleoptile sections and every treatment was replicated by 6 plates. […] Shoots of Baloskion tetraphyllum were cultured on 1/2 MS basal medium supplemented with […] in 16 hr light culture (PPFD of 30 μmolm^−2s^−1). After two months, whole shoots were trimmed of upper leaf and basal roots to 4 mm in length, then explanted to culture media with 1 mM 2,4-dichlorophenoxyacetic acid and supplemented with different concentrations of compound 1a (0, 1.0, 10, 100 ppb, respectively) and incubated in darkness at 22-25° C. Each plate was inoculated with 10 trimmed shoots and every treatment replicated with 4 plates. Somatic embryogenesis and plant regeneration was investigated at various intervals.

Emmenanthe penduliflora = assay: Germination on moist filter paper in petri dishes; type: in vivo; conditions: SW 1/10 dilution, compound 1a 10 ppb
Microlaena stipoides = assay: Germination enhancement of species used in rangeland pasture systems; type: in vivo; conditions: 100 ppb compound 1a; constant darkness at 18° C.; mean ± standard error
Description: (§4) Three replicates of 25 seeds were placed on Petri dishes lined with seed germination paper. The Petri dishes were moistened with de-ionised water (control) or 100 ppb compound 1a. All species were incubated in constant darkness at 18° C. Germination (radicle emergence) was recorded every 2-3 days until germination had ceased.

Echinacea angustifolia = assay: Stimulation of germination in nutriceutically important plants; type: in vivo
Description: as §4, with “(control), 10” for “(control)”, “Seeds” for “All species”

[4] = tested on: Podolepis canescens seeds; assay: Compound 1a as a replacement for light or gibberellic acid; type: in vivo; conditions: 1, 10 or 100 ppb compound 1a; similar to gibberellic acid
Description: Three replicates of 50 seeds of Podolepis canescens were placed on Petri dishes containing filter paper moistened with de-ionised water (control), 1, 10 or 100 ppb compound 1a or 1000 ppm gibberellic acid. The Petri dishes were incubated at 12/12 hr alternating temperatures of 7/18° C., 13/26° C. or 18/33° C. and incubated in white light or continuous darkness. All of the treatments were added to the Petri dishes in complete darkness prior to moving to the incubators. Germination was recorded following 7 days incubation.

[5] = 26/13 ° C. 12/12 hr alternating
[6] = 33/18 ° C. 12/12 hr alternating

Cc1c2ccocc-2oc1=O [Compound 1a, 3-Methyl-2H-furo[2,3-c]pyran-2-one]
Germination, Nicotiana attenuate (Nicotiana attenuate): **44.4 (±1.9) b % | Germination, Conostylis candicans (Conostylis candicans): 36.0 (±6.7) b % | Germination, Syncarpha vestita (Syncarpha vestita): 77.5 (±6.3) b % | Germination, Brunonia australis (Brunonia australis): 25.0 (±2.5) b % | Germination, Ozothamnus cordifolium (Ozothamnus cordifolium): 24.0 (±4.3) c % | Germination, Rhodocoma arida (Rhodocoma arida): *53.3 (±3.1) b % | Germination, Passerina vulgaris (Passerina vulgaris): 10.0 (±4.1) b % | Germination, Grevillea polybotrya (Grevillea polybotrya): 6.0 (±2.0) c % | Germination, Scaevola thesioides (Scaevola thesioides): 17.0 (±5.5) b % | Germination, Verticordia densiflora (Verticordia densiflora): 11.1 (±1.2) b % | Germination (%), Cherianthera preissiana (Cherianthera preissiana): 46.7 ± 4.8 b % | Germination (%), Centrolepis aristate (Centrolepis aristate): 88.0 ± 0.0 b % | Germination (%), Phyllanthus calycinus (Phyllanthus calycinus): 17.3 ± 1.3 b % | Germination (%), Borya sphaerocephala (Borya sphaerocephala): 13.3 ± 4.8 b % | Germination (%), Opercularia vaginate (Opercularia vaginate): 22.7 ± 7.4 b % | Germination (%), Leek ([1]; 18/7 ° C. 12/12 hr alternating, mean ± standard error): 97.1 ± 0.9 a % | Germination (%), Leek [1, 5]: 92.0 ± 4.3 a % | Germination (%), Leek [1, 6]: 72.0 ± 6.3 b % | Germination (%), Parsley ([2]; 18/7 ° C. 12/12 hr alternating): 27.0 ± 1.9 a % | Germination (%), Parsley [2, 5]: 70 ± 5.6 b % | Germination (%), Parsley [2, 6]: 29.0 ± 6.8 b % | Frequency of shoot formation ([3]; Coleoptile explants): 37.0 | Number of shoots ([3]; Coleoptile explants): 4.5 | Frequency of shoot formation ([3]; Shoot explants): 58.6 | Number of shoots ([3]; Shoot explants): 7.8 | root formation and plantlet maturation ([3]; once somatic embryos are induced): significantly enhances | plantlet recovery and regeneration ([3]; somatic embryos transferred to hormone-free medium): significantly improved | effect on the induction phase of somatic embryogenesis ([3]; with 2,4-dichlorophenoxyacetic acid): no apparent effect | Germination, Emmenanthe penduliflora (Emmenanthe penduliflora): 82.0 (±4.2) b % | Germination, Microlaena stipoides (Microlaena stipoides): 78.3 ± 6.7 b | germination of Echinacea angustifolia (Echinacea angustifolia; 10 ppb compound 1a, mean ± standard error): 58.0 ± 5.5 b | germination of Echinacea angustifolia (Echinacea angustifolia; 100 ppb compound 1a): 74.0 ± 4.0 b | germination in the dark of light-requiring Podolepis canescens [4]: stimulates germination in the dark
